Values quoted from earlier work in PubChem BioAssay AID1259409 (Chemical Carcinogenesis Research Information System (CCRIS), 2018).

Test system: rodent chemically induced tumor inhibition, incidence and multiplicity
Experiment: CCRIS tumor inhibitor studies
Conditions: Carcinogen: 2,2'-DIHYDROXY-DI-N-PROPYLNITROSAMINE, 53609-64-6, 13147-25-6, Carcinogen: 2,2'-DIHYDROXY-DI-N-PROPYLNITROSAMINE, 53609-64-6, 13147-25-6, Dose [Inhibitor]: 0, Route [Inhibitor]: ORAL, Species: RAT, Promoter: NONE USED; for tumour outcome (control, treated, inhibition, significance): N-ETHYL-N-HYDROXYETHYLNITROSAMINE, Dose [Carcinogen]: 1000 MG/KG BW DHPN TWICE

In the case of `O=P(O)(O)OC1C(OP(=O)(O)O)C(OP(=O)(O)O)C(OP(=O)(O)O)C(OP(=O)(O)O)C1OP(=O)(O)O` (stereo not given), the outcome (N-ETHYL-N-HYDROXYETHYL- NITROSAMINE, 3,2'-DIMETHYL-4-, N-ETHYL-N-HYDROXYETHYL- NITROSAMINE, 3,2'-DIMETHYL-4-, 2% IN DIET BEGINNING 1 WK POST LAST CARCINOGEN DOSE AND CONTINUING FOR 32 WK (STUDY DURATION: 36 WK), Strain/Sex: F344/MALE, Target Tissue: Type of Lesion: URINARY BLADDER: PAPILLOMA, Dose [Carcinogen]: 1000 MG/KG/ IP DHPN 2X, 1500 MG/KG/ GAV EHEN 2X AND 75 MG/KG SC DMAB 3X GIVEN OVER THE INITIAL 3 WK PERIOD AT 3-4 D INTE) is given as 0/14 (0%), 6/12 (50%), p<0.01n, the “tumour outcome (control, treated, inhibition, significance)” value (3,2'-DIMETHYL-1,4-, 3,2'-DIMETHYL-1,4-, 1% IN DIET FOR 4 WK BEGINNING 1 D PRIOR TO FIRST CARCINOGEN DOSE (STUDY DURATION: 36 WK), Strain/Sex: F344/MALE, Target Tissue: Type of Lesion: KIDNEY: ADENOMA, 1500 MG/KG EHEN TWICE, 75 MG/KG BW DMAB 3 TIMES, SEQUENTIALLY OVER 3 WK) is given as 6/10 (60%), 6/14 (43%), 28%, not significant and the “tumour outcome (control, treated, inhibition, significance)” value (3,2'-DIMETHYL-1,4-, 3,2'-DIMETHYL-1,4-, 1% IN DIET FOR 4 WK BEGINNING 1 D PRIOR TO FIRST CARCINOGEN DOSE (STUDY DURATION: 36 WK), Strain/Sex: F344/MALE, Target Tissue: Type of Lesion: LUNG: ADENOMA, 1500 MG/KG EHEN TWICE, 75 MG/KG BW DMAB 3 TIMES, SEQUENTIALLY OVER 3 WK) is given as 5/10 (50%), 9/14 (64%), -28%, not significant. The “tumour outcome (control, treated, inhibition, significance)” value (3,2'-DIMETHYL-4-AMINO-, 3,2'-DIMETHYL-4-AMINO-, 2% IN DIET FOR 32 WK BEGINNING 1 WK POST CARCINOGEN TREATMENT (STUDY DURATION: 36 WK0, Strain/Sex: F344/MALE, Target Tissue: Type of Lesion: KIDNEY: NEPHROBLASTOMA, 1500 MG/KG BW EHEN TWICE, 75 MG/KG BW 3 TIMES ADMINISTERED OVER FIRST 3 WK) was 2/14 (14%), 3/12 (25%), -79%, not significant, the “tumour outcome (control, treated, inhibition, significance)” value (3,2'-DIMETHYL-4-AMINO-, 3,2'-DIMETHYL-4-AMINO-, 2% IN DIET FOR 32 WK BEGINNING 1 WK POST CARCINOGEN TREATMENT (STUDY DURATION: 36 WK), Strain/Sex: F244/MALE, Target Tissue: Type of Lesion: THYROID GLAND: CARCINOMA, 1500 MG/KG BW EHEN TWICE, 75 MG/KG BW 3 TIMES ADMINISTERED OVER FIRST 3 WK) was 3/14 (21%), 2/12 (17%), 19%, not significant and the “tumour outcome (control, treated, inhibition, significance)” value (3,2'-DIMETHYL-4-AMINO-, 3,2'-DIMETHYL-4-AMINO-, 2% IN DIET FOR 32 WK BEGINNING 1 WK POST CARCINOGEN TREATMENT (STUDY DURATION: 36 WK), Strain/Sex: F344/MALE, Target Tissue: Type of Lesion: KIDNEY: ADENOMA, 1500 MG/KG BW EHEN TWICE, 75 MG/KG BW 3 TIMES ADMINISTERED OVER FIRST 3 WK) was 6/14 (43%), 7/12 (58%), -35%, not significant. The “tumour outcome (control, treated, inhibition, significance)” value (3,2'-DIMETHYL-4-AMINO-, 3,2'-DIMETHYL-4-AMINO-, 2% IN DIET FOR 32 WK BEGINNING 1 WK POST CARCINOGEN TREATMENT (STUDY DURATION: 36 WK), Strain/Sex: F344/MALE, Target Tissue: Type of Lesion: KIDNEY: TRANSITIONAL CELL CARCINOMA, 1500 MG/KG BW EHEN TWICE, 75 MG/KG BW 3 TIMES ADMINISTERED OVER FIRST 3 WK) was 1/14 (7%), 2/12 (17%), -143%, not significant, the “tumour outcome (control, treated, inhibition, significance)” value (3,2'-DIMETHYL-4-AMINO-, 3,2'-DIMETHYL-4-AMINO-, 2% IN DIET FOR 32 WK BEGINNING 1 WK POST CARCINOGEN TREATMENT (STUDY DURATION: 36 WK), Strain/Sex: F344/MALE, Target Tissue: Type of Lesion: LARGE INTESTINE: CARCINOMA, 1500 MG/KG BW EHEN TWICE, 75 MG/KG BW 3 TIMES ADMINISTERED OVER FIRST 3 WK) was 3/14 (21%), 4/12 (33%), -57%, not significant and the “tumour outcome (control, treated, inhibition, significance)” value (3,2'-DIMETHYL-4-AMINO-, 3,2'-DIMETHYL-4-AMINO-, 2% IN DIET FOR 32 WK BEGINNING 1 WK POST CARCINOGEN TREATMENT (STUDY DURATION: 36 WK), Strain/Sex: F344/MALE, Target Tissue: Type of Lesion: LIVER: HEPATOCELLULAR CARCINOMA, 15OO MG/KG BW EHEN TWICE, 75 MG/KG BW 3 TIMES ADMINISTERED OVER FIRST 3 WK) was 6/14 (43%), 1/12 (8%), 81%, not significant. For the same compound, the “tumour outcome (control, treated, inhibition, significance)” value (3,2'-DIMETHYL-4-AMINO-, 3,2'-DIMETHYL-4-AMINO-, 2% IN DIET FOR 32 WK BEGINNING 1 WK POST CARCINOGEN TREATMENT (STUDY DURATION: 36 WK), Strain/Sex: F344/MALE, Target Tissue: Type of Lesion: LUNG: ADENOMA, 1500 MG/KG BW EHEN TWICE, 75 MG/KG BW 3 TIMES ADMINISTERED OVER FIRST 3 WK) was 7/14 (50%), 9/12 (75%), -50%, not significant.
